In patent publication US6998383B2, “Inhibitors of receptor activator of NF-κB and uses thereof” (Research Development Corporation, priority 2001, dated 2006):

Assays:
[1] = molecular target: T1, TRAF6 binding to the RANK cytoplasmic domain (Mus musculus, UniProt P70196); assay: Competitive GST-pull down assay, TRAF6 binding to RANK cytoplasmic domain; conditions: 100 μM peptide, FLAG-TRAF6 293 cell extract, GST-RANK cytoplasmic domain (FIG. 4C)
T1 construct: expressed in transfected cells; host or cells: human 293 cells (TRAF lysate); The GST-RANK fusion was purified as previously described
T1 sequence (P70196 1-530): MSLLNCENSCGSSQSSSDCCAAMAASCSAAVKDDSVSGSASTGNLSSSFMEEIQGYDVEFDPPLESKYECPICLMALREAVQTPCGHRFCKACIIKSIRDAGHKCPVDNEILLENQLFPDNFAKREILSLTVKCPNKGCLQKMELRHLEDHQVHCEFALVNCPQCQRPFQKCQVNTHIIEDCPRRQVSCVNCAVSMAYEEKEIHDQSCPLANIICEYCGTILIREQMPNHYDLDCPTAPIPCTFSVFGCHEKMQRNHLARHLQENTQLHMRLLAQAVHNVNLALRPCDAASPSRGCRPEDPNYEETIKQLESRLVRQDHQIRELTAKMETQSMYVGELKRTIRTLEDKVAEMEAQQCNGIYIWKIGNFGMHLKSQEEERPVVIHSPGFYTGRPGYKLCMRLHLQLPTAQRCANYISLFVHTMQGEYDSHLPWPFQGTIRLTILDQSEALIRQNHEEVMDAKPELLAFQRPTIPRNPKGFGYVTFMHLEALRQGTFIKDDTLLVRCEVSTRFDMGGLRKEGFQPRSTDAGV
Protocol: (§1) Cellular extracts from human 293 cells transfected with either FLAG-TRAF2, -TRAF5, or -TRAF6 were mixed with GST or GST-RANKed in the absence or presence of 100 μM of the indicated peptides. A GST-pull down assay was performed as described below. The bound TRAFs were visualized by immunoblotting with anti-FLAG antibodies.
(§2) Equivalent amounts of GST or GST-RANK cytoplasmic domain (GST-RANKed) fusion protein attached to 20 μl of glutathione agarose beads were mixed with lysates (50 μg) from 293 cells programmed to express the epitope-tagged TRAF protein and the indicated peptides in binding buffer (20 mM TRIS, pH 8, 150 mM NaCl, 1 mM DTT, 2 mM EDTA, and 0.1% NP-40) and allowed to rotate for 1 h at 4° C. The beads were collected by centrifugation, washed three times in binding buffer, and then washed once in low-salt buffer (20 mM TRIS, pH 8, 50 mM NaCl, and 1 mM DTT). Bound proteins were eluted with addition of SDS-sample buffer and boiled. The eluted proteins were subjected to 7.5% SDS-PAGE and western blot analysis was performed with anti-FLAG antibodies.
(§3) The cytoplasmic domain of RANK interacts with many TRAF molecules, including TRAF1, 2, 3, 5, and 6 (7-9, 11, 12). While TRAF1, 2, 3, and 5 interact with the c-terminal tail of receptor activator of NF-κB, TRAF6 interacts with a membrane proximal region of the cytoplasmic domain of the receptor activator of NF-κB. […]

ERK = assay: RANKL-mediated ERK activation in RAW264.7 cells (phospho-specific immunoblot); assay type: cell-based, mouse; conditions: peptide 6 h, RANKL 10 nM 15 min (FIG. 5B)
Protocol: FIG. 5B and FIG. 5C show inhibition of RANKL-mediated ERK and p38 activation by L-T6DP-1. Whole cell extracts (30 μg) from FIG. 5A were separated by 10% SDS-PAGE and electroblotted onto a nitrocellulose membrane. The membranes were first immunoblotted with the indicated phospho-specific antibody and then stripped and re-probed with the indicated antibodies as described below.
Stimulation of the receptor activator of NF-κB activates members of the MAPK family including JNK, ERK and p38 kinase. The ability of the TRAF6 binding peptides to inhibit the receptor activator of NF-κB ligand-induced JNK, ERK, and p38 kinase activation was examined in RAW264.7 cells. […] Similar to the results with JNK, only L-T6DP-1 was able to block ERK (FIG. 5B) and p38 kinase (FIG. 5C) activation induced by the receptor activator of NF-κB ligand in RAW264.7 cells.

[2] = molecular target: T2, TRAF5 binding to the cytoplasmic domain of RANK (Mus musculus, UniProt P70191); assay: Competitive GST-pull down assay, TRAF5 binding to RANK cytoplasmic domain; conditions: 100 μM peptide, FLAG-TRAF5 293 cell extract (FIG. 4C)
T2 construct: expressed in transfected cells; host or cells: human 293 cells (TRAF lysate); The GST-RANK fusion was purified as previously described
T2 sequence (P70191 whole entry, the tested form may be a part): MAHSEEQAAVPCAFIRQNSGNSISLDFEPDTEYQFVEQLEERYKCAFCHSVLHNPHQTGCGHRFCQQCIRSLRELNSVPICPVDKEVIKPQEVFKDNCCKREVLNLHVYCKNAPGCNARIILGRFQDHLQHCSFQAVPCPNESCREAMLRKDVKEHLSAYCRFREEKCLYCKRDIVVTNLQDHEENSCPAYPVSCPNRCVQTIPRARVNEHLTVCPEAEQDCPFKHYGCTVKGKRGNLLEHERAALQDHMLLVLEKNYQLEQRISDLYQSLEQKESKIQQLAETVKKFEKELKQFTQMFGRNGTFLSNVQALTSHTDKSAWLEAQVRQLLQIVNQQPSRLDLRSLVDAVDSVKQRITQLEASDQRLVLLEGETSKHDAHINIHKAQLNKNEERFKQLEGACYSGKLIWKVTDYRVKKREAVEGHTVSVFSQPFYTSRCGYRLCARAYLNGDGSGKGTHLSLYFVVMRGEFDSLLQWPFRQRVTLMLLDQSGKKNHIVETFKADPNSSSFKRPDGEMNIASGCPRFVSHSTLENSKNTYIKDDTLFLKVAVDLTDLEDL
Protocol: as §1, §2, §3

IκB = IκB degradation in RANKL-treated RAW264.7 cells (anti-IκB immunoblot); assay type: cell-based, mouse; conditions: cytoplasmic extracts of RAW264.7 cells from FIG. 4A (FIG. 4B)
Protocol: RAW264.7 cells were plated in 6-well plates and treated with the indicated peptides for 5 h, then treated with RANKL (10 nM) for 15 mm. Nuclear and cytoplasmic extracts were prepared and a gel mobility shift assays was performed with 8 μg of nuclear extracts as described below.
Cytoplasmic extracts (30 μg) from FIG. 4A were immunoblotted with anti-IκB as described below.
293 cells were plated at 0.6×10^6 cells/well on 6-well plates and transfected the next day as described (8). Total amount of plasmid DNA was kept constant by adding empty pCMVFLAG1 vector. Cells and the conditioned supernatants were harvested 24-36 h after transfection. Lysates were prepared as described (8). For western blot analysis, whole-cell lysates (15-30 μg) or proteins from GST-affinity precipitation were separated by 8.5% SDS-PAGE, electroblotted onto nitrocellulose membranes, and incubated with the indicated antibodies. The membranes were then developed using the enhanced chemiluminescence (ECL) system (Amersham, Chicago, Ill.).

[3] = test system: RAW cells co-cultured with breast cancer cell lines; assay: Osteoclast differentiation of RAW cells induced by co-cultured breast cancer cells (T47D, MDA-MB-468); assay type: cell-based, mouse; conditions: co-culture, 100 μM peptide, 5 days, TRAP staining (FIG. 6A)
Protocol: FIG. 6A: Breast cancer cells (500/well) were plated in 24-well plates in the absence or presence of RAW cells (10000/well) and in the absence or presence of L-T6DP-1 or T6DP-1 (100 μM). After 5 days. the cells were fixed, stained for TRAP, and photographed with a 10× objective lens.
The number of MG-63 cells was critical for inducing RAW cells to differentiate into osteoclasts. These observations lead to a direct inverse relationship between the number of RAW cells to MG-63 cells which is required for the formation of osteoclasts. […] When grown on synthetic bone slides, the osteoclasts derived from the co-culture assays were able to cause bone resorption (FIG. 6B).
When L-T6DP-1 was added to these co-culture assays, the ability of the breast cancer cells to induce osteoclast differentiation of RAW cells was abolished, whereas T6DP-1 had no effect (FIG. 6A).

Substance: L-T6DP-1: Kaposi fibroblast growth factor signal sequence hydrophobic domain attached to murine RANK peptide containing the known TRAF6 binding domain (AAVALLPAVLLALLAPRKIPTEDEYTDRPSQPST; PEPTIDE Peptide L-T6Bp-1)
- TRAF6 interaction with the cytoplasmic domain of RANK [1]: inhibited
- RANKL-induced ERK activation (ERK): able to block
- TRAF5 binding to the cytoplasmic domain of RANK [2]: neither L-T6DP-1 nor L-T6DP-2 inhibited
- IκB degradation (IκB): inhibition
- ability of breast cancer cells to induce osteoclast differentiation of RAW cells [3]: abolished
